Measurements published in ChEMBL document CHEMBL5291721, “A preclinical secondary pharmacology resource illuminates target-adverse drug reaction associations of marketed drugs” (Nat Commun, 2023).

Legend:
[1] = biological target: Prostaglandin G/H synthase 1 (Homo sapiens, UniProt P23219); assay type: functional
[2] = biological target: T1, 5-hydroxytryptamine receptor 1A (Homo sapiens, UniProt P08908)
T1 sequence (P08908 whole entry): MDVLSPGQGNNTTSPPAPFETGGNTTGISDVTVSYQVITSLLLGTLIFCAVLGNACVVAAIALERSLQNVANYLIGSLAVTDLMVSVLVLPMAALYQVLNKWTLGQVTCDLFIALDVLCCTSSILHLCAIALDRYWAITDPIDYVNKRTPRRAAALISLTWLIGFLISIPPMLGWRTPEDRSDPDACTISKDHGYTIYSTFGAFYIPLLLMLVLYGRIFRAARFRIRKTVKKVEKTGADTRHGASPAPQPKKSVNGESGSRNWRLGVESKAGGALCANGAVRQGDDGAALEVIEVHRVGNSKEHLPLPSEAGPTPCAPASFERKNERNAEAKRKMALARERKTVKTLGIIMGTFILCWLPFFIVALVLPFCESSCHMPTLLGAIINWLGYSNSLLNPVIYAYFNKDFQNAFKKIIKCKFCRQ

Thromboxane A2 receptor = biological target: T2, Thromboxane A2 receptor (Homo sapiens, UniProt P21731); assay type: functional, cell-based
T2 sequence (P21731 whole entry): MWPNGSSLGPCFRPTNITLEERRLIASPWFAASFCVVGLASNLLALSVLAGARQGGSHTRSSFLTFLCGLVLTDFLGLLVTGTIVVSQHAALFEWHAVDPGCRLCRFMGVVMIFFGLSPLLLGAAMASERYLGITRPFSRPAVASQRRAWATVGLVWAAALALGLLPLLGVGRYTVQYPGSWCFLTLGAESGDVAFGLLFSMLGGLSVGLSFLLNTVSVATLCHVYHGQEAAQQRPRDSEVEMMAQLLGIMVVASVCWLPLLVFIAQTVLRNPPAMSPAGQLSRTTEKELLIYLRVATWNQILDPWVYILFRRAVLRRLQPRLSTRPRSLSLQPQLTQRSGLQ

Acetylcholinesterase = Acetylcholinesterase (Homo sapiens, UniProt P22303); assay type: functional
[3] = biological target: T3, Amine oxidase [flavin-containing] A (Homo sapiens, UniProt P21397); assay type: functional
T3 sequence (P21397 whole entry): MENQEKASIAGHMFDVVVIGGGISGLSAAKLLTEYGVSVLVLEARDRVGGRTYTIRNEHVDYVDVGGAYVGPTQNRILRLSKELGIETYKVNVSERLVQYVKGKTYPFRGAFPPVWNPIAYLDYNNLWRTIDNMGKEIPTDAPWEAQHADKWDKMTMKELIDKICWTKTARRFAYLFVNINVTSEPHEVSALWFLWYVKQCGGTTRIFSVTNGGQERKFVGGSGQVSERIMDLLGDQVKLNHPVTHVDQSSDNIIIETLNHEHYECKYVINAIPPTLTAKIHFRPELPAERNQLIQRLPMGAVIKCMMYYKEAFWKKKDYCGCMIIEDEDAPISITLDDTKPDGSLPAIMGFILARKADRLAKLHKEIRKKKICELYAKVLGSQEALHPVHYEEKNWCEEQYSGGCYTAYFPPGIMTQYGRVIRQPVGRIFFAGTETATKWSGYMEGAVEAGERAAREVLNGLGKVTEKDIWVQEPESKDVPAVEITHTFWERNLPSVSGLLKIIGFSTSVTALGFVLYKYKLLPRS

[4] = biological target: T4, Muscarinic acetylcholine receptor M2 (Homo sapiens, UniProt P08172)
T4 sequence (P08172 whole entry): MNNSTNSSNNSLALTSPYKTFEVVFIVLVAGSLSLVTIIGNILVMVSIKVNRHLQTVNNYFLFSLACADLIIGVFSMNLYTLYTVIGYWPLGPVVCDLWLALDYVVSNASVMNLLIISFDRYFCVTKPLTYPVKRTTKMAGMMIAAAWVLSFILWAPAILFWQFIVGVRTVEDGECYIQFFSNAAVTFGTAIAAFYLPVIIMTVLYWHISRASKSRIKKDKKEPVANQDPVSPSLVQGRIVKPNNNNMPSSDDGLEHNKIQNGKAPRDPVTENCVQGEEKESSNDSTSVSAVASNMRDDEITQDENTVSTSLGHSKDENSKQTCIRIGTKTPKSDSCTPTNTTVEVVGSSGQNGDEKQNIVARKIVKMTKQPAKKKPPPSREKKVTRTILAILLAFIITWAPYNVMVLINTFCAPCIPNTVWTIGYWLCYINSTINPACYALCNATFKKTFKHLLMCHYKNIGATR

[5] = biological target: 3',5'-cyclic-AMP phosphodiesterase 4A (Homo sapiens, UniProt P27815); assay type: functional
Note: assay procedure not described here.

Sequence of 3',5'-cyclic-AMP phosphodiesterase 4A (P27815 whole entry): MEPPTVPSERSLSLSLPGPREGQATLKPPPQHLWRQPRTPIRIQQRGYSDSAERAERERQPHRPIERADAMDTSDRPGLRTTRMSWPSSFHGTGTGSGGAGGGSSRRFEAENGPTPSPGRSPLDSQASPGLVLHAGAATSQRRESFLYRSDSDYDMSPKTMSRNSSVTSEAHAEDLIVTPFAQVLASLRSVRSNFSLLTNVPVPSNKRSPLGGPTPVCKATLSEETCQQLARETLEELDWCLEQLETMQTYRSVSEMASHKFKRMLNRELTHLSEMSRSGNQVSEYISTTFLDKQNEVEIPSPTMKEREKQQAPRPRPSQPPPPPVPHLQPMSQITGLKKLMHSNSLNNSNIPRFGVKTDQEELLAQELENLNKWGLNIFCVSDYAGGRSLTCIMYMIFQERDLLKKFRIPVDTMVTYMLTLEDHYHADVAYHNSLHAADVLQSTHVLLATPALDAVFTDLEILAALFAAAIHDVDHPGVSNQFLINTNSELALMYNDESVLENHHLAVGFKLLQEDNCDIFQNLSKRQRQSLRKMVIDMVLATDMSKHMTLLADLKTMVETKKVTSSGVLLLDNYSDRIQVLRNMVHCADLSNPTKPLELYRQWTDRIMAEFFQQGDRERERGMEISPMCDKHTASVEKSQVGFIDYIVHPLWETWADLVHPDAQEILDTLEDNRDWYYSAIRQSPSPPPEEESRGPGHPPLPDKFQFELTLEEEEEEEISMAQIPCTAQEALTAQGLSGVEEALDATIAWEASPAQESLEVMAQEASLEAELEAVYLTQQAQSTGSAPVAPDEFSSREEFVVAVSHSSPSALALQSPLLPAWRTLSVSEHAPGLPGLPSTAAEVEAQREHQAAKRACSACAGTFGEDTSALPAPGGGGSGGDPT
Sequence of Acetylcholinesterase (P22303 whole entry): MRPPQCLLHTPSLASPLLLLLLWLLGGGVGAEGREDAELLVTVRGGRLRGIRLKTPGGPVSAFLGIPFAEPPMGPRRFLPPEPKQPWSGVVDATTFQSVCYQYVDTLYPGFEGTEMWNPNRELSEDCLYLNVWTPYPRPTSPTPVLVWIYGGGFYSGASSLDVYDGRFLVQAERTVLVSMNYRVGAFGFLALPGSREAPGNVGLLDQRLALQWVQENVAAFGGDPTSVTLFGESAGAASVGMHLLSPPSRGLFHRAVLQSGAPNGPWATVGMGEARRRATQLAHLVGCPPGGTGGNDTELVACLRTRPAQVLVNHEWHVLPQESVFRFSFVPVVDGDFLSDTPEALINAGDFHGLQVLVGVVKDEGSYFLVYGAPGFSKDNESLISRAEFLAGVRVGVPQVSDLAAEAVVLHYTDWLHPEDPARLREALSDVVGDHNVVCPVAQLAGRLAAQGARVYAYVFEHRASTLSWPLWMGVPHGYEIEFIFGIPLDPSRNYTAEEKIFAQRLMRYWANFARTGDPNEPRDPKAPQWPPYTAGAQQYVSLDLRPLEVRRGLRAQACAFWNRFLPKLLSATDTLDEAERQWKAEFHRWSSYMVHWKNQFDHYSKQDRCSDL
Sequence of Prostaglandin G/H synthase 1 (P23219 whole entry): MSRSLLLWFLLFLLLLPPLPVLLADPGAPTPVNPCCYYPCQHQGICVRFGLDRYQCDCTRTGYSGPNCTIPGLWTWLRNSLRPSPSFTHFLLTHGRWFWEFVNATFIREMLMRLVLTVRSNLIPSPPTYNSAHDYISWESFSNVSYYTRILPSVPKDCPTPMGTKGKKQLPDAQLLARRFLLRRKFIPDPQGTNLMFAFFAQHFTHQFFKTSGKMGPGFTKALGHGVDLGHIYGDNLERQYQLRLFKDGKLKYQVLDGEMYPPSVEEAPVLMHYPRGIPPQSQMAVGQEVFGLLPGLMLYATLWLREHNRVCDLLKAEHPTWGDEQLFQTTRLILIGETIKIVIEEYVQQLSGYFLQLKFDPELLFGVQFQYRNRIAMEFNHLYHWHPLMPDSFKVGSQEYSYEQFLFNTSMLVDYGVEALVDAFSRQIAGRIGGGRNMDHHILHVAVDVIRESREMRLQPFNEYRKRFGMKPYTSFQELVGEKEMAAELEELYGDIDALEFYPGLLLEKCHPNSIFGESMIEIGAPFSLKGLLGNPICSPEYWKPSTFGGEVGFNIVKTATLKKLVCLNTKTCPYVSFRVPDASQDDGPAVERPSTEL

With C=CC(=O)Nc1cccc(Oc2nc(Nc3ccc(N4CCN(C)CC4)cc3)nc3ccsc23)c1 [OLMUTINIB] as the compound, how does the AC50 [1] read?
The AC50 was over 30 µM.

What about the AC50 [2] of the same compound?
Its AC50 is 2.44 µM.

What about the AC50 (Thromboxane A2 receptor) of the same compound?
The AC50 was 4.35 µM.

And the AC50 (Acetylcholinesterase)?
Its AC50 is over 30 µM.

What about the AC50 [3] of the same compound?
The AC50 was over 30 µM.

And the AC50 [4]?
The AC50 was 1.64 µM.

What about the AC50 [5] of the same compound?
Its AC50 is 3.19 µM.

With COc1ccc2[nH]c([S+]([O-])Cc3ncc(C)c(OC)c3C)nc2c1 (stereo unspecified) [OMEPRAZOLE] as the compound, how does the AC50 [1] read?
Its AC50 is 5.76 µM.

And the AC50 [2]?
The AC50 was over 30 µM.

What about the AC50 (Thromboxane A2 receptor) of the same compound?
Its AC50 is over 30 µM.

And the AC50 (Acetylcholinesterase)?
Its AC50 is over 30 µM.

What about the AC50 [3] of the same compound?
The AC50 was over 30 µM.

What about the AC50 [4] of the same compound?
Its AC50 is 15.7 µM.

What about the AC50 [5] of the same compound?
Its AC50 is over 30 µM.

For CCCCC1C(=O)N(c2ccccc2)N(c2ccc(O)cc2)C1=O (stereo unspecified) [OXYPHENBUTAZONE ANHYDROUS], which AC50 [1] is on record?
The AC50 was 7.8 µM.

And the AC50 [2]?
Its AC50 is over 30 µM.

And the AC50 (Thromboxane A2 receptor)?
The AC50 was over 30 µM.

What about the AC50 (Acetylcholinesterase) of the same compound?
Its AC50 is over 30 µM.

What about the AC50 [3] of the same compound?
The AC50 was over 30 µM.

And the AC50 [4]?
Its AC50 is over 30 µM.

What about the AC50 [5] of the same compound?
Its AC50 is over 30 µM.

With O=C(O)CN(CCN(CC(=O)O)CC(=O)O)CCN(CC(=O)O)CC(=O)O [PENTETIC ACID] as the compound, how does the AC50 [1] read?
The AC50 was over 30 µM.

And the AC50 [2]?
Its AC50 is over 30 µM.

And the AC50 (Thromboxane A2 receptor)?
The AC50 was over 30 µM.

What about the AC50 (Acetylcholinesterase) of the same compound?
Its AC50 is over 30 µM.

What about the AC50 [3] of the same compound?
The AC50 was over 30 µM.

And the AC50 [4]?
The AC50 was 3.91 µM.

And the AC50 [5]?
The AC50 was over 30 µM.

How did the AC50 [1] turn out when Nc1cccc2c1C(=O)N(C1CCC(=O)NC1=O)C2=O (stereo unspecified) [POMALIDOMIDE] was run?
The AC50 was over 30 µM.

What about the AC50 [2] of the same compound?
The AC50 was over 30 µM.

And the AC50 (Thromboxane A2 receptor)?
Its AC50 is over 30 µM.

And the AC50 (Acetylcholinesterase)?
Its AC50 is over 30 µM.

What about the AC50 [3] of the same compound?
Its AC50 is over 30 µM.

And the AC50 [4]?
Its AC50 is over 30 µM.

What about the AC50 [5] of the same compound?
The AC50 was over 30 µM.

What does the source list for C[Se]CC[C@H](N)C(=O)O [SELENOMETHIONINE]?
AC50 [1]: > 30 µM; AC50 [2]: > 30 µM; AC50 (Thromboxane A2 receptor): > 30 µM; AC50 (Acetylcholinesterase): > 30 µM; AC50 [3]: > 30 µM; AC50 [4]: > 30 µM; AC50 [5]: > 30 µM

Which results are given for C[N+](C)(C)CCOC(=O)CCC(=O)OCC[N+](C)(C)C [SUXAMETHONIUM]?
AC50 [1]: > 30 µM; AC50 [2]: > 30 µM; AC50 (Thromboxane A2 receptor): > 30 µM; AC50 (Acetylcholinesterase): > 30 µM; AC50 [3]: > 30 µM; AC50 [4]: > 30 µM; AC50 [5]: > 30 µM

Which results are given for Cc1ccsc1C(=CCCN1CCC[C@@H](C(=O)O)C1)c1sccc1C [TIAGABINE]?
AC50 [1]: 24.4 µM; AC50 [2]: > 30 µM; AC50 (Thromboxane A2 receptor): > 30 µM; AC50 (Acetylcholinesterase): > 30 µM; AC50 [3]: > 30 µM; AC50 [4]: > 30 µM; AC50 [5]: 23.6 µM

For Cc1ccc(C(=O)c2ccc(CC(=O)O)n2C)cc1 [TOLMETIN], which AC50 [1] is on record?
The AC50 was 0.081 µM.

And the AC50 [2]?
Its AC50 is over 30 µM.

What about the AC50 (Thromboxane A2 receptor) of the same compound?
Its AC50 is over 30 µM.

What about the AC50 (Acetylcholinesterase) of the same compound?
Its AC50 is over 30 µM.

What about the AC50 [3] of the same compound?
Its AC50 is over 30 µM.

And the AC50 [4]?
Its AC50 is over 30 µM.

What about the AC50 [5] of the same compound?
Its AC50 is over 30 µM.

Which results are given for Cc1ccccc1C(=O)Nc1ccc(C(=O)N2CCCC(O)c3cc(Cl)ccc32)c(C)c1 (stereo unspecified) [TOLVAPTAN]?
AC50 [1]: > 30 µM; AC50 [2]: 11 µM; AC50 (Thromboxane A2 receptor): 7.42 µM; AC50 (Acetylcholinesterase): > 30 µM; AC50 [3]: > 30 µM; AC50 [4]: > 30 µM; AC50 [5]: > 30 µM

With C[C@]12C=CC(=O)C=C1CC[C@H]1[C@@H]3C[C@@H](O)[C@](O)(C(=O)CO)[C@@]3(C)C[C@H](O)[C@@]12F [TRIAMCINOLONE] as the compound, how does the AC50 [1] read?
Its AC50 is over 30 µM.

And the AC50 [2]?
The AC50 was over 30 µM.

And the AC50 (Thromboxane A2 receptor)?
Its AC50 is over 30 µM.

What about the AC50 (Acetylcholinesterase) of the same compound?
Its AC50 is over 30 µM.

What about the AC50 [3] of the same compound?
Its AC50 is over 30 µM.

And the AC50 [4]?
The AC50 was over 30 µM.

And the AC50 [5]?
The AC50 was over 30 µM.

Which results are given for CC[C@]12CCCN3CCc4c(n(c5ccccc45)[C@@](O)(C(=O)OC)C1)[C@@H]32 [VINCAMINE]?
AC50 [1]: > 30 µM; AC50 [2]: > 30 µM; AC50 (Thromboxane A2 receptor): > 30 µM; AC50 (Acetylcholinesterase): > 30 µM; AC50 [3]: > 30 µM; AC50 [4]: > 30 µM; AC50 [5]: > 30 µM

What does the source list for CCC1=C[C@@H]2CN(C1)Cc1c([nH]c3ccccc13)[C@@](C(=O)OC)(c1cc3c(cc1OC)N(C)[C@H]1[C@@](O)(C(=O)OC)[C@H](OC(C)=O)[C@]4(CC)C=CCN5CC[C@]31[C@@H]54)C2 [VINORELBINE]?
AC50 [1]: > 30 µM; AC50 [2]: > 30 µM; AC50 (Thromboxane A2 receptor): > 30 µM; AC50 (Acetylcholinesterase): > 30 µM; AC50 [3]: > 30 µM; AC50 [4]: > 30 µM; AC50 [5]: > 30 µM
